Literature values, collected in publication PMC6311893, “Computational prediction of plasma protein binding of cyclic peptides from small molecule experimental data using sparse modeling techniques” (BMC Bioinformatics, 2018).
Like-named read-outs stand apart in the source and are kept apart here.

System: plasma protein
Conditions: cited from earlier work
[1] = fraction bound to plasma protein, small molecule dataset, sheet 1-SM, Set Dtr, ref Ingle et al.
[2] = fraction bound to plasma protein, small molecule dataset, sheet 1-SM (Set Dte = test, Dtr = training), ref Ingle et al.
[3] = fraction bound to plasma protein, small molecule dataset, sheet 1-SM, ref Ingle et al.

CO[C@@]1(NC(=O)C2SC(=C(C(N)=O)C(=O)O)S2)C(=O)N2C(C(=O)O)=C(CSc3nnnn3C)CS[C@@H]21 (stereo partly drawn) [Cefotetan]
PPB (fb) [1]: 0.84

CCN(CC)C(=S)SSC(=S)N(CC)CC [disulfiram]
PPB (fb) [2]: 0.5

O=C(O)CCNC(=O)c1ccc(/N=N/c2ccc(O)c(C(=O)O)c2)cc1 [balsalazide]
PPB (fb) [2]: 0.99

C[C@H](CCC(=O)O)[C@H]1CC[C@H]2[C@@H]3[C@@H](O)C[C@@H]4C[C@H](O)CC[C@]4(C)[C@H]3CC[C@]12C [ursodiol]
PPB (fb) [1]: 0.97

CCCCCN(C)CCC(O)(P(=O)(O)O)P(=O)(O)O [Ibandronic Acid (Ibandronate)]
PPB (fb) [2]: 0.85

C[C@]12CCC(=O)C=C1[C@@H]1C[C@@H]1[C@H]1[C@@H]3[C@@H]4C[C@@H]4[C@@]4(CCC(=O)O4)[C@@]3(C)CC[C@@H]12 [drospirenone]
PPB (fb) [3]: 0.97

CC1(C)S[C@@H]2[C@H](NC(=O)Cc3ccccc3)C(=O)N2[C@H]1C(=O)O [Penicillin G]
PPB (fb) [1]: 0.62

COc1ccc([C@@H]2Sc3ccccc3N(CCN(C)C)C(=O)[C@@H]2OC(C)=O)cc1 [Diltiazem]
PPB (fb) [1]: 0.81

C=CCC1(C(C)C)C(=O)NC(=O)NC1=O [aprobarbital]
PPB (fb) (plasma): 0.62

CC1(C)SC2C(NC(=O)c3ccccc3-c3ccccc3)C(=O)N2C1C(=O)O (stereo not drawn) [penicillin16]
PPB (fb) [3]: 0.91

C[C@@H](O)[C@H]1C(=O)N2C(C(=O)O)=C(S[C@H]3C[C@@H](C(=O)N4CC[C@H](NC(=O)CNC(=N)N)C4)N(C)C3)[C@H](C)[C@H]12 [Tomopenem]
PPB (fb) [2]: 0.09

CC1(C)SC2C(NC(=O)C(N)c3ccc(Cl)c(Cl)c3)C(=O)N2C1C(=O)O (stereo not drawn) [penicillin29]
PPB (fb) [2]: 0.82

CCC(Cc1c(I)cc(I)c(N)c1I)C(=O)O (stereo not drawn) [iopanoic acid]
PPB (fb) [3]: 0.79

Doxycycline
PPB (fb) (plasma): 0.89

COc1cc(N)c(Cl)cc1C(=O)NC1CCN(CCCOc2ccc(F)cc2)CC1OC (stereo not drawn) [cisapride]
PPB (fb) [2]: 0.98

C=CCNc1nc(NCC=C)nc(N2CCN(C(c3ccc(F)cc3)c3ccc(F)cc3)CC2)n1 [almitrine]
PPB (fb) [2]: 0.99

CO[C@H]1O[C@@H]2O[C@@]3(C)CC[C@H]4[C@H](C)CC[C@@H]([C@H]1C)[C@@]24OO3 [artemether]
PPB (fb) [2]: 0.5

CN(C)/N=N/c1[nH]cnc1C(N)=O [Dacarbazine]
PPB (fb) [1]: 0.02

CNC(C)Cc1ccc2c(c1)OCO2 (stereo not drawn) [methylenedioxymethamphetamine]
PPB (fb) (plasma): 0.65

CCCC(C)C1(CC)C(=O)NC(=S)NC1=O (stereo not drawn) [Thiopental]
PPB (fb) (plasma): 0.84

CC1=C(CC(=O)O)c2cc(F)ccc2/C1=C\c1ccc([S+](C)[O-])cc1 (stereo not drawn) [sulindac]
PPB (fb) [3]: 0.93

CCN(CC)C(=O)N[C@H]1C=C2c3cccc4[nH]cc(c34)C[C@H]2N(C)C1 [lisuride]
PPB (fb) (plasma): 0.7

OC(c1cc(C(F)(F)F)nc2c(C(F)(F)F)cccc12)C1CCCCN1 (stereo not drawn) [mefloquine]
PPB (fb) [3]: 0.97

O=C(NC1CCN(CCc2c[nH]c3ccccc23)CC1)c1ccccc1 [Indoramin]
PPB (fb) [1]: 0.83

CC12CC3CC(C)(C1)CC(N)(C3)C2 [Memantine]
PPB (fb) [3]: 0.45

C=CCC1(C(C)CCC)C(=O)NC(=O)NC1=O (stereo not drawn) [quinalbarbitone]
PPB (fb) (plasma): 0.5

CCCCCCC(N)C(=O)NC1C(=O)N2C1SC(C)(C)C2C(=O)O (stereo not drawn) [penicillin13]
PPB (fb) [2]: 0.66

CCCOC(=O)Cc1ccc(OCC(=O)N(CC)CC)c(OC)c1 [propanidid]
PPB (fb) (plasma): 0.75

CC(Oc1ccc(Cl)c(Cl)c1)C(=O)NC1C(=O)N2C1SC(C)(C)C2C(=O)O (stereo not drawn) [penicillin58]
PPB (fb) [3]: 0.97

Cc1nc(C)c(C)nc1C [tetramethylpyrazine phosphate]
PPB (fb) [3]: 0.56

O=C1c2cccc3c2[C@H](CCC3)CN1[C@@H]1CN2CCC1CC2 [Palonosetron]
PPB (fb) [1]: 0.62

CC1CCN(CCCC(=O)c2ccc(F)cc2)CC1 [melperone]
PPB (fb) [3]: 0.5

CC(=O)Nc1ccc(OCC(O)CNC(C)C)cc1 (stereo not drawn) [practolol]
PPB (fb) [3]: 0.3

CSc1ccc(C(=O)c2[nH]c(=O)[nH]c2C)cc1 [Fenoximone]
PPB (fb) [1]: 0.74

C=CCN1CC[C@]23c4c5ccc(O)c4O[C@H]2C(=O)CC[C@@]3(O)[C@H]1C5 [Naloxone]
PPB (fb) [1]: 0.45

NCCCNCCSP(=O)(O)O [amifostine]
PPB (fb) [2]: 0.04

N[C@@H]1[C@H]2CN(c3nc4c(cc3F)c(=O)c(C(=O)O)cn4-c3ccc(F)cc3F)C[C@@H]12 [Trovafloxacin]
PPB (fb) [3]: 0.81

ClC1=C(Cl)[C@]2(Cl)[C@@H]3[C@@H]4C[C@@H]([C@H]5O[C@@H]45)[C@@H]3[C@@]1(Cl)C2(Cl)Cl [dieldrin]
PPB (fb) (plasma): 0.99

COc1cc2c(cc1O)CCNC21CSC2c3c(OC(C)=O)c(C)c4c(c3C(COC1=O)N1C(O)C3Cc5cc(C)c(OC)c(O)c5C(C21)N3C)OCO4 (stereo not drawn) [Trabectedin (ET-743__ Yondelis)]
PPB (fb) [1]: 0.94

Oc1cc(O)c2c(c1)O[C@H](c1ccc(O)c(O)c1)[C@H](O)[C@H]2c1c(O)cc(O)c2c1O[C@H](c1ccc(O)c(O)c1)[C@@H](O)C2 [procyanidin B1]
PPB (fb) (plasma): 0.73

CCN(CC)C(=O)[C@@H]1C=C2c3cccc4[nH]cc(c34)C[C@H]2N(C)C1 [lysergide]
PPB (fb) (plasma): 0.9

CC(=O)N1CCN(c2ccc(OCC3COC(Cn4ccnc4)(c4ccc(Cl)cc4Cl)O3)cc2)CC1 (stereo not drawn) [ketoconazole]
PPB (fb) [2]: 0.92

COc1ccccc1OCCNCC(O)c1ccc(C)c(S(N)(=O)=O)c1 (stereo not drawn) [amosulalol]
PPB (fb) [2]: 0.98

polythiazide
PPB (fb) (plasma): 0.85

CC(Oc1ccccc1)C(=O)N[C@@H]1C(=O)N2[C@@H]1SC(C)(C)[C@@H]2C(=O)O (stereo partly drawn) [Phenethicillin]
PPB (fb) [1]: 0.75

CC1(C)SC2C(NC(=O)CC(N)c3cccs3)C(=O)N2C1C(=O)O (stereo not drawn) [penicillin72]
PPB (fb) [2]: 0.32

C[C@]12CCC(=O)C=C1CC[C@@H]1[C@@H]2[C@@H](O)C[C@@]2(C)[C@H]1CC[C@]2(O)C(=O)CO [Hydrocortisone]
PPB (fb) [1]: 0.8

CC(C)(C)NC[C@H](O)COc1ccccc1C1CCCC1 [penbutolol]
PPB (fb) [3]: 0.95

N[C@@H](Cc1c[nH]c2ccccc12)C(=O)O [Tryptophan]
PPB (fb) [1]: 0.8

CCCCC1(CC)C(=O)NC(=O)NC1=O [butobarbital]
PPB (fb) (plasma): 0.26

Nc1ccc(S(=O)(=O)Nc2ccnn2-c2ccccc2)cc1 [sulfaphenazole]
PPB (fb) [2]: 0.95

OC[C@H]1O[C@@H](n2cnc3c2NC=NC[C@H]3O)C[C@@H]1O [pentostatin]
PPB (fb) [3]: 0.03

CC(C(=O)O)c1ccc2oc(-c3ccc(Cl)cc3)nc2c1 (stereo not drawn) [benoxaprofen]
PPB (fb) [2]: 0.99

Cc1c(N(C)CS(=O)(=O)O)c(=O)n(-c2ccccc2)n1C [dipyrone]
PPB (fb) [2]: 0.6

CCC1(c2cccc(O)c2)CCCCN(C)C1 (stereo not drawn) [Meptazinol]
PPB (fb) (plasma): 0.27

CN1CCc2c(c3ccccc3n2Cc2ccccc2)C1 [mebhydrolin]
PPB (fb) [3]: 0.04

NS(=O)(=O)c1cc(C(=O)O)cc(N2CCCC2)c1Oc1ccccc1 [Piretanide]
PPB (fb) [1]: 0.94

NC(=O)c1cnccn1 [Pyrazinamide]
PPB (fb) [3]: 0.1

Cc1cc2c(OCC(O)CNC(C)C)cccc2[nH]1 (stereo not drawn) [mepindolol]
PPB (fb) [3]: 0.5

CCCN1CCN(c2cc3c(cc2F)c(=O)c(C(=O)O)cn3-c2ccc(OC)cc2)CC1 [5cc (p-OCH3__ N- C3H7]
PPB (fb) [2]: 0.54

CC1Cc2ccccc2N1NC(=O)c1ccc(Cl)c(S(N)(=O)=O)c1 (stereo not drawn) [indapamide]
PPB (fb) [3]: 0.76

CC(=O)OCC(=O)[C@@]1(O)CC[C@H]2[C@@H]3CCC4=CC(=O)CC[C@]4(C)[C@H]3C(=O)C[C@@]21C [cortisone acetate]
PPB (fb) [2]: 0.95

Cc1cn[nH]c1 [fomepizole]
PPB (fb) [3]: 0

Cc1c(N(C)C)c(=O)n(-c2ccccc2)n1C [amidopyrine]
PPB (fb) [2]: 0.3

CN(C)C/C=C(/c1ccc(Br)cc1)c1cccnc1 [zimeldine]
PPB (fb) [2]: 0.9

C[C@]12CC[C@@H]3c4ccc(O)cc4CC[C@H]3[C@@H]1CC[C@@H]2O [Estradiol]
PPB (fb) [1]: 0.984

O=P(O)(O)C(O)(Cn1ccnc1)P(=O)(O)O [Zoledronic Acid]
PPB (fb) [3]: 0.22

CC1(C)S[C@@H]2[C@H](NC(=O)[C@H](NC(=O)N3CCNC3=O)c3ccccc3)C(=O)N2[C@H]1C(=O)O [Azlocillin]
PPB (fb) [1]: 0.32

CCCc1nc(C(C)(C)O)c(C(=O)O)n1Cc1ccc(-c2ccccc2-c2nnn[nH]2)cc1 [Olmesartan]
PPB (fb) [3]: 0.99

O=C(O)c1ccccc1Nc1cccc(C(F)(F)F)c1 [flufenamic acid]
PPB (fb) [3]: 0.9

NS(=O)(=O)c1cc2c(cc1C(F)(F)F)NC(Cc1ccccc1)NS2(=O)=O (stereo not drawn) [bendrofluazide]
PPB (fb) [2]: 0.94

CS(=O)(=O)c1ccc(C2=C(c3ccccc3)C(=O)OC2)cc1 [rofecoxib]
PPB (fb) [3]: 0.87

CCCCCc1cc(O)c2c(c1)OC(C)(C)C1CCC(C)=CC21 (stereo not drawn) [Tetrahydrocannabinol__ D9-]
PPB (fb) (plasma): 0.96

COc1c(C)c2c(c(O)c1C/C=C(\C)CCC(=O)O)C(=O)OC2 [mycophenolic acid]
PPB (fb) [3]: 0.96

O=C(O)c1cn(-c2ccc(F)cc2)c2cc(N3CCNCC3)c(F)cc2c1=O [2c(p-F)]
PPB (fb) [2]: 0.31
